Experimental data from US8951796B2, “Methods and compositions for expanding and stabilizing natural regulatory T cells” (University of Southern California, priority 2010, dated 2015).

Key:
[1] = system: IL-6R (CD126, CD130), STAT3, ROR-γt in nTregs; assay: IL-6 receptor expression and signaling in nTregs by flow cytometry; type: cell-based, mouse
Description: One potential mechanism by which atRA treatment stabilizes phenotype of nTregs, particularly suppressive function, may be through downregulation of the expression of IL-6R and IL-6R signaling. To investigate this potential mechanism, CD4^+CD25^+ cells were stimulated with anti-CD3/CD28 coated beads and IL-2 with or without atRA for 4 days. […] CD126 (IL-6Rα chain) expression was determined by flow cytometry. […] When atRA-treated nTregs were restimulated with IL-6, the decrease in IL-6 signaling was accompanied by a decrease of expression of ROR-γt (FIG. 4B), the crucial transcription factor required for Th17 cell differentiation. This finding is in agreement with reports that the combination of IL-2 and TGF-β has dramatic effects on both IL-6 receptor expression and signaling on nTreg cells. […] The p values indicate significant differences between DMSO treated and atRA treated nTregs (p<0.05, t test).

nTregs = assay: Expansion of nTregs with anti-CD3/28 coated beads and IL-2; type: cell-based, DBA/1 mice; conditions: one week, IL-2, with atRA
Description: (§1) To activate nTregs, CD25^+ or GFP^+ cells were stimulated with anti-CD3/CD28 coated beads (1:5, one bead to five cells), rmIL-2 (100 U/ml) (R&D) with DMSO or all-trans retinoic acid (atRA, 0.05 μM) for 3 days. To generate Th17 cells, these activated nTregs were stimulated with immobilized anti-CD3 (1 μg/ml), soluble anti-CD28 (1 μg/ml), anti-IL-4 (10 μg/ml) (BD biosciences), anti-IFN-γ and IL-6 (10 ng/ml) (BD Pharmingen) for 3 days.
(§2) For the data in FIGS. 2A and B, CD4^+CD25^+ cells were stimulated with anti-CD3/CD28 coated beads (1:5), rmIL-2 (100 U/ml) with DMSO or atRA (0.05 μM) for 7 days and the FOXP3 expression (A) and total Foxp3^+ cell numbers (B) were determined.

CD4+CD25+ nTregs [2] = assay: FOXP3 expression of activated/expanded nTregs by FACS intracellular staining; type: cell-based, DBA/1 mice
Description: as §1
For the experiments in FIG. 1D, nTregs were activated with anti-CD3/CD28 coated beads in the presence of the atRA solvent (DMSO) or atRA (0.05 μM) with or without IL-6 (10 ng/ml) for 3 days and Foxp3 expression was determined and compared to freshly isolated CD4^+CD25^+ cells by FACS intracellular staining.
as §2

human nTregs = assay: Expansion and FOXP3 expression of human nTregs from peripheral blood; type: cell-based
Excerpt: In addition to mouse nTregs, atRA also stabilized FOXP3 expression of human nTregs. nTregs were isolated from human peripheral blood and expanded with anti-CD3/28 coated beads with IL-2 in the presence or absence of atRA. […] By ten days of culture control FOXP3+ cells increased 5 fold, but atRA treated nTregs increased 20 fold.

IL-6 Rα mRNA, p-Stat3 = conditions: cited from earlier work
[3] = system: nTregs isolated from CIA mice; assay: nTregs isolated from CIA mice: suppressive activity by proliferation of T responder cells; type: cell-based, mouse; conditions: anti-CD3 1 μg/ml, IL-6 10 ng/ml, atRA 0.05 μM, 7 days
Description: For the experiments in FIG. 7A, nTregs isolated from CIA mice were stimulated with immobilized anti-CD3 (1 μg/ml) and IL-6 (10 ng/ml) with and without atRA (0.05 μM) for 7 days. Phenotypic stability was measured by FOXP3 expression and suppressive activity was determined by the proliferation of T responder cells. CMP indicates the value of T responder cells. Values in FIG. 7A indicate the mean±SEM of three independent experiments. In the experiments in FIG. 7B, nTregs from CIA mice were expanded with anti-CD3/CD28 beads (1:5) and IL-2 (100 U/ml)±atRA (0.05 μM) for 4 days. Mice with established CIA were injected intravenously with 1×10^6 atRA treated nTregs, DMSO treated nTregs or PBS (control group) (n=6/group). The mice were examined every five days after injection and the clinical scores are indicated.

CD4+CD25+ nTregs [4] = assay: Th17 conversion of nTregs stimulated with anti-CD3/CD28 and IL-6 (intracellular IL-17 FACS, soluble IL-17A ELISA); type: cell-based, DBA/1 mice
Description: as §1
Because atRA was dissolved in DMSO, similar volumes of DMSO was added to the cultures to exclude the possibility that atRA has a non-specific toxic effect on T cells (FIGS. 1A and B). For the data in FIGS. 1A and B, CD4^+CD25^+ cells were stimulated with immobilized anti-CD3 (1 μg/ml), soluble anti-CD28 (1 μg/ml) and IL-6 (10 ng/ml) with or without atRA (0.05 μM). 3 days later, these cells were restimulated with PMA (0.25 μg/ml) and ionomycin (0.25 μg/ml) for 5 h and brefeldin A (5 μg/ml) for 4 h, and then collected for intracellular IL-17 and IFN-γ staining. Values indicate mean±SEM of four separate experiments and representative of these experiments
(§3) In FIG. 1C, soluble IL-17A in the culture supernatants was analyzed by an ELISA. The horizontal line indicates the levels of IL-17A in the supernatant of naïve TCR-stimulated CD4^+ cells in the presence of IL-6 and TGF-β. E, the suppressive activities of nTregs in the presence of IL-6 and/or atRA were determined by the inhibition of tritiated thymidine ([^3H]-TdR) uptake.
For the experiments in FIG. 2D, CD4^+CD25^+ cells were activated as in FIG. 2A and re-stimulated with IL-6 as for the experiments in FIG. 1A described above. Intracellular IL-17 and IFN-γ expression was determined by FACS staining. Results are representative of three independent experiments. IL-17 and IFN-γ secreted into the supernatants was consistent with intracellular cytokine expression (data not shown).

T responder cells = assay: Suppressor assay: inhibition of [3H]-TdR uptake of T responder cells by nTregs; type: cell-based, DBA/1 mice
Description: To measure suppressive activities, responder T cells were stimulated with soluble anti-CD3 (0.025 μg/ml) and irradiated APC (1:1), nTregs pretreated with at-RA or without atRA were added to cultures at a ratio of 1:4 (one nTreg to four responder cells). After 72-hour cultures, triplicate wells were pulsed with 1 μCi of [^3H]-TdR for the final 16 hours. Cell proliferation was determined by [^3H]-TdR incorporation using scintillation counting.
as §3
In FIG. 2F, the suppressive activities of atRA or DMSO treated nTregs in the absence or presence of IL-6 in vitro was determined by similar methods as in FIG. 1E. P values were calculated by Student's test and indicate significant differences between atRA and control treated nTregs (P<0.05).

[5] = anti-CD3/CD28 beads, IL-2, atRA, 4 days

For `CC1=C(/C=C/C(C)=C/C=C/C(C)=C/C(=O)O)C(C)(C)CCC1` [atRA, all-trans retinoic acid], the “Stat-3 activation in nTregs” value ([1]; addition of atRA) was “significantly decreased”, the “CD126 (IL-6Rα chain) expression in activated nTregs” value [1, 5] was “markedly decreased” and the “IL-6 Rβ (CD130) expression” value [1, 5] was “significantly decreased”. The “expression of ROR-γt” value ([1]; atRA-treated nTregs restimulated with IL-6) was “decrease”, the “expansion of nTregs” value (nTregs) was “eight-fold” and the “FOXP3 expressed by nTregs expanded with atRA” value (CD4+CD25+ nTregs [2]; atRA 0.05 μM, IL-2 100 U/ml, 7 days) was “remained stable”. The “down-regulation of FOXP3 expression in the presence of IL-6” value (CD4+CD25+ nTregs [2]; atRA 0.05 μM, IL-6 10 ng/ml, 3 days, vs DMSO cultures) was “almost completely prevented”, the “FOXP3 expression following re-stimulation with IL-6” value (CD4+CD25+ nTregs [2]; nTregs previously treated with atRA) was “maintained FOXP3 expression” and the “total number of FOXP3+ cells” value (human nTregs; human nTregs) was “significantly increased”. For the same compound, the “percentage of nTregs expressing FOXP3” value (human nTregs; human nTregs proliferating in culture, some cultures with IL-1 and/or IL-6) was “decreased significantly less than control nTregs”, the “increase of FOXP3+ cells” value (human nTregs; human nTregs, ten days of culture) was 20 fold and the “levels of p-Stat3 expression induced by IL-6 plus TGF-β” value (IL-6 Rα mRNA, p-Stat3) was “decreases”. The “up-regulation of IL-6 Rα mRNA induced by TGF-β” value (IL-6 Rα mRNA, p-Stat3) was “strongly inhibits”, the “suppressive activity of nTregs from CIA mice” value [3] was “show suppressive activity” and the “activation and proliferation status of nTregs” value (CD4+CD25+ nTregs [4]; addition of atRA) was “did not affect”. For the same compound, the “intracellular IL-17 production” value (CD4+CD25+ nTregs [4]; atRA 0.05 μM added to cultures with IL-6 (10 ng/ml), 3 days) was “completely blocked”, the “soluble IL-17 production” value (CD4+CD25+ nTregs [4]; atRA 0.05 μM added to cultures with IL-6 (10 ng/ml), ELISA of supernatants) was “completely blocked” and the “Th17 and Th1 conversion of expanded nTregs” value (CD4+CD25+ nTregs [4]; nTregs expanded with atRA, restimulated with anti-CD3/28 beads with IL-6) was “completely resistant”. For the same compound, the “suppressive activity of nTregs in the presence of IL-6” value (T responder cells; atRA added to the cultures with IL-6) was “maintained the suppressive activity”, the “T cell response with atRA alone” value (T responder cells; in the presence of IL-6, in the absence of nTregs) was “did not suppress” and the “suppressive function after restimulation with IL-6” value (T responder cells; nTregs expanded in the presence of atRA, washed) was “completely intact”. The “suppressive activities of nTregs expanded with atRA” value (T responder cells; vs nTregs expanded without atRA) was “even superior”.
